Laboratory results reported in patent US20190390170A1, “METHODS FOR MODULATING PRODUCTION PROFILES OF RECOMBINANT PROTEINS” (ARES TRADING S.A., priority 2016, published 2019).

How the values were obtained:
[1] = tested on: CHO-K1 cells expressing a monoclonal antibody P2; assay: Fed-batch culture of P2 cells with valeric acid (viable cell density, viability, titer); type: cell-based, Chinese hamster
Experimental: Assays were performed with 2 CHO cell lines: • CHO-S cells expressing a fusion protein P1, herein “Cells P1” or “P1 cells”. “P1” is an IgG1 fusion protein, comprising one part directed against a membrane protein (IgG part) linked to a second part targeting a soluble immune protein. Its isoelectric point (pi) is about 6.3-7.0. • CHO-K1 cells expressing a monoclonal antibody P2, herein “Cells P2” or “P2 cells”. “P2” is a humanised monoclonal antibody directed against a receptor found on the cell membrane. Its isoelectric point (pi) is about 9.20-9.40. Cell expansion was performed in tubes in a medium suitable for cell expansion. Assays in fed-batch started after at least one week expansion. Cells expressing both P1 and P2 were inoculated at 0.2×10^6 viable cells per millilitre (mL). All assays were performed in fed-batch culture. The host cells were cultured in fed-batch system either in microplates (“Deep well plate”, “DWP”) or in Spin Tubes®, and incubated at 36.5° C., 90% relative humidity, 5% CO2 and 320 rpm shaking during 14 days. A stock solution of valeric acid was prepared in a standard production proprietary medium. The valeric acid concentration of this stock solution was 195 mM. The stock solution was used to supplement media to test different valeric acid concentrations from the beginning of the culture (day 0; tested concentrations: 1, 1.5 and 2 mM). The solution was also used like a feed to supplement the valeric acid to the culture at different time points during the fed-batch (day 3, 4, 5 or 7). When the solution was used like a feed, the target concentration in the culture was always 1.5 mM. Viable cell density and viability were measured with the Guava easyCyte® flow cytometer or with the ViCell. Antibody titres were measured with the fortéBIO Octet® or with Biacore C®. In this experiment the addition of 1.5 mM valeric acid to the culture on day 03, 04 or 05 was tested. For this experiment a CHO-k1 cell line (P2 cells) was used to confirm that valeric acid has the same effect than on CHO-S cells (P1 cells as discussed in a.).

[2] = tested on: CHO-S cells expressing a fusion protein P1; assay: Fed-batch culture of P1 cells with valeric acid (viable cell density, viability, titer); type: cell-based, Chinese hamster
Experimental: Assays were performed with 2 CHO cell lines: • CHO-S cells expressing a fusion protein P1, herein “Cells P1” or “P1 cells”. “P1” is an IgG1 fusion protein, comprising one part directed against a membrane protein (IgG part) linked to a second part targeting a soluble immune protein. Its isoelectric point (pi) is about 6.3-7.0. • CHO-K1 cells expressing a monoclonal antibody P2, herein “Cells P2” or “P2 cells”. “P2” is a humanised monoclonal antibody directed against a receptor found on the cell membrane. Its isoelectric point (pi) is about 9.20-9.40. Cell expansion was performed in tubes in a medium suitable for cell expansion. Assays in fed-batch started after at least one week expansion. Cells expressing both P1 and P2 were inoculated at 0.2×10^6 viable cells per millilitre (mL). All assays were performed in fed-batch culture. The host cells were cultured in fed-batch system either in microplates (“Deep well plate”, “DWP”) or in Spin Tubes®, and incubated at 36.5° C., 90% relative humidity, 5% CO2 and 320 rpm shaking during 14 days. A stock solution of valeric acid was prepared in a standard production proprietary medium. The valeric acid concentration of this stock solution was 195 mM. The stock solution was used to supplement media to test different valeric acid concentrations from the beginning of the culture (day 0; tested concentrations: 1, 1.5 and 2 mM). The solution was also used like a feed to supplement the valeric acid to the culture at different time points during the fed-batch (day 3, 4, 5 or 7). When the solution was used like a feed, the target concentration in the culture was always 1.5 mM. Viable cell density and viability were measured with the Guava easyCyte® flow cytometer or with the ViCell. Antibody titres were measured with the fortéBIO Octet® or with Biacore C®.

[3] = 1.5 mM valeric acid added day 03, 04 or 05, until day 12
[4] = valeric acid in media on day 0 (1, 1.5 and 2 mM)

Q: With `CCCCC(=O)O` [valeric acid] as the molecule, how does the “viability compared to control culture” value ([1]; 1.5 mM valeric acid added day 03, 04 or 05, starting day 13) read?
A: prolonged compared to the control culture

Q: What about the “cell viability compared to control” value [1, 3] of the same molecule?
A: no impact on cell viability

Q: What about the “titer compared to control” value [1, 3] of the same molecule?
A: comparable to control

Q: What about the “maximum viable cell density compared to control” value ([1]; 1.5 mM valeric acid added earlier during the culture (day 03, 04 or 05)) of the same molecule?
A: decreased

Q: What about the “titer increase compared to control” value ([1]; 1.5 mM valeric acid at day 3, titer at day 17) of the same molecule?
A: about 25%

Q: And the “titer increase compared to control” value ([1]; 1.5 mM valeric acid at day 5, titer at day 17)?
A: about 35%

Q: And the “titer increase compared to control” value ([1]; 1.5 mM valeric acid at day 7 (so in the source), titer at day 17)?
A: about 25%

Q: What about the titer obtained ([1]; optimal valeric acid condition, after day 17 (data not shown), control 0.9 g/L) of the same molecule?
A: ~5 g/L

Q: And the “viability of the culture compared to control” value ([2]; 1.5 mM valeric acid added as feed (day 3, 5 or 7), as of day 12)?
A: prolonged compared to the control runs

Q: And the “cell viability compared to control” value ([2]; 1.5 mM valeric acid added as feed (day 3, 5 or 7), until day 11)?
A: no impact on cell viability until day 11

Q: What about the “increase of titer compared to control” value ([2]; 1.5 mM valeric acid added as feed at day 3, titer at day 12) of the same molecule?
A: about 20%

Q: What about the “increase of titer compared to control” value ([2]; 1.5 mM valeric acid added as feed at day 5, titer at day 12) of the same molecule?
A: about 30%

Q: What about the “increase of titer compared to control” value ([2]; 1.5 mM valeric acid added as feed at day 7, titer at day 12) of the same molecule?
A: about 20%

Q: And the “cell growth rate compared to control” value ([2]; 1.5 mM valeric acid added at day 3)?
A: slowed down

Q: What about the final titer [2, 4] of the same molecule?
A: not improved

Q: And the “maximum viable cell density” value [2, 4]?
A: The higher the concentration, the lower the maximum viable cell density

Q: What about the viability [2, 4] of the same molecule?
A: maintained longer than for control experiment

Q: What about the “impact on cell density and titer” value ([2]; valeric acid in the media on day 0) of the same molecule?
A: very negative impact on both cell density and titer
